Legend:
[1] = system: ragweed; experiment: Test C preemergence; format: in vivo, Ambrosia elatior; conditions: Ambrosia artemisiifolia, pre-emergence
Outline: (§1)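 Seeds were sown in loam–sand blend and sprayed preemergence, while plants at 1- to 4-leaf stage (2–18 cm) in peat-based medium received postemergence sprays; test chemicals were formulated in a non-phytotoxic solvent with surfactant. After 13–15 days in a greenhouse, injury was rated visually against controls, 0 (no effect) to 100 (complete control).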

[2] = system: wheat, winter; experiment: Test C preemergence; format: in vivo, Triticum aestivum; conditions: Triticum aestivum, pre-emergence
Outline: as §1

[3] = system: velvetleaf; experiment: Test E preemergence; format: in vivo, Abutilon theophrasti; conditions: for Velvetleaf plant response rating: scale 0 to 100 (0 no effect, 100 complete control); for Plant response rating, Velvetleaf: scale 0 to 100, 0 no effect, 100 complete control
Outline: (§2)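 Test chemicals formulated in a non-phytotoxic solvent mixture containing a surfactant were applied preemergence to seeds in silt loam soil or postemergence to plants at the 1- to 4-leaf stage in potting mix. After 14 to 21 days in a greenhouse, injury was visually rated against controls on a 0-100 scale (0 = no effect, 100 = complete control).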

[4] = system: fall panicum; experiment: Test E postemergence; format: in vivo, Panicum dichotomiflorum; conditions: Panicum dichotomiflorum, post-emergence, read-out: Plant response rating, Panicum, Fall
Text: (§3) Seeds of plant species selected from corn (Zea mays), soybean (Glycine max), velvetleaf (Abutilon theophrasti), lambsquarters (Chenopodium album), wild poinsettia (Euphorbia heterophylla), palmer pigweed (Amaranthus palmeri), waterhemp (common waterhemp, Amaranthus rudis), surinam grass (Brachiaria decumbens), large (Lg) crabgrass (Digitaria sanguinalis), Brazilian crabgrass (Digitaria horizontalis), fall panicum (Panicum dichotomiflorum), giant foxtail (Setaria faberii), green foxtail (Setaria viridis), goosegrass (Eleusine indica), johnsongrass (Sorghum halepense), ragweed (common ragweed, Ambrosia elatior), barnyardgrass (Echinochloa crus-galli), sandbur (southern sandbur, Cenchrus echinatus), arrowleaf sida (Sida rhombifolia), Italian ryegrass (Lolium multiflorum), dayflower (Virginia (VA) dayflower, Commelina virginica), field bindweed (Convolvulus arvensis), morningglory (Ipomoea coccinea), nightshade (eastern black nightshade, Solanum ptycanthum), kochia (Kochia scoparia), yellow nutsedge (Cyperus esculentus), cocklebur (common cocklebur, Xanthium strumarium), smartweed (ladysthumb smartweed, and hairy beggarticks (Bidens pilosa), were planted into a silt loam soil and treated preemergence with test chemicals formulated in a non-phytotoxic solvent mixture which included a surfactant.
(§4) At the same time, plants from these crop and weed species and also horseweed (Canada horseweed, Conyza canadensis), waterhemp_RES1, (ALS & Triazine resistant common waterhemp, Amaranthus rudis), and waterhemp_RES2, (ALS & HPPD resistant common waterhemp, Amaranthus rudis) were planted in pots containing Redi-Earth® planting medium (Scotts Company, 14111 Scottslawn Road, Marysville, Ohio 43041) comprising spaghnum peat moss, vermiculite, wetting agent and starter nutrients were treated with postemergence applications of test chemicals formulated in the same manner. Plants ranged in height from 2 to 18 cm for postemergence treatments (1- to 4-leaf stage). Treated plants and controls were maintained in a greenhouse for 14 to 21 days, after which time all species were compared to controls and visually evaluated. Plant response ratings, summarized in Table E, are based on a scale of 0 to 100 where 0 is no effect and 100 is complete control. A dash (-) response means no test result.

[5] = system: large (Lg) crabgrass; experiment: Test E preemergence; format: in vivo, Digitaria sanguinalis; conditions: for Crabgrass, Large plant response rating: scale 0 to 100 (0 no effect, 100 complete control); for Plant response rating, Crabgrass, Large: scale 0 to 100, 0 no effect, 100 complete control
Text: as §3, §4

[6] = system: sandbur; experiment: Test E postemergence; format: in vivo, Cenchrus echinatus; conditions: Cenchrus echinatus, post-emergence, read-out: Plant response rating, Sandbur
Outline: as §2

[7] = system: waterhemp; experiment: Test E postemergence; format: in vivo, Amaranthus rudis; conditions: Amaranthus tuberculatus, post-emergence, read-out: Plant response rating, Waterhemp
Outline: as §2

[8] = system: waterhemp_RES2 (ALS & HPPD resistant common waterhemp); experiment: Test E postemergence; format: in vivo, Amaranthus rudis; conditions: Amaranthus tuberculatus, post-emergence, read-out: Plant response rating, Waterhemp_RES2
Outline: as §2

[9] = system: johnsongrass; experiment: Test E preemergence; format: in vivo, Sorghum halepense; conditions: for Johnsongrass plant response rating: scale 0 to 100 (0 no effect, 100 complete control); for Plant response rating, Johnsongrass: scale 0 to 100, 0 no effect, 100 complete control
Outline: as §2

[10] = system: soybean; experiment: Test E preemergence; format: in vivo, Glycine max; conditions: for Soybean plant response rating: scale 0 to 100 (0 no effect, 100 complete control); for Plant response rating, Soybean: scale 0 to 100, 0 no effect, 100 complete control
Outline: as §2

[11] = system: arrowleaf sida; experiment: Test E postemergence; format: in vivo, Sida rhombifolia; conditions: Sida rhombifolia, post-emergence, read-out: Plant response rating, Arrowleaf Sida
Outline: as §2

[12] = Postemergence, 31 g ai/ha, scale 0 to 100
[13] = Postemergence, 62 g ai/ha, scale 0 to 100
[14] = Postemergence, 125 g ai/ha, scale 0 to 100
[15] = postemergence, 16 g ai/ha, scale 0 to 100, 0 no effect, 100 complete control

SMILES: N#Cc1cccc(Oc2ncc(Cl)cn2)c1-n1cc(Br)cn1 [Compound 52, 2-(4-bromo-1H-pyrazol-1-yl)-3-[(5-chloro-2-pyrimidinyl)oxy]benzonitrile]
- pest or weed control at 62 g/ha ([1]; 62 g ai/ha, preemergence, scale 0 (no effect) to 100 (complete control), read-out: Ragweed plant response rating): 90%
- pest or weed control at 125 g/ha ([1]; 125 g ai/ha, preemergence, scale 0 (no effect) to 100 (complete control), read-out: Ragweed plant response rating): 95%
- pest or weed control at 250 g/ha ([1]; 250 g ai/ha, preemergence, scale 0 (no effect) to 100 (complete control), read-out: Ragweed plant response rating): 100%
- pest or weed control at 31 g/ha ([1]; Preemergence, 31 g ai/ha, scale 0 to 100, 0 no effect, 100 complete control, read-out: Plant response rating, Ragweed): 90%
- plant injury at 62 g/ha ([2]; 62 g ai/ha, preemergence, scale 0 (no effect) to 100 (complete control), read-out: Wheat plant response rating): 0%
- plant injury at 125 g/ha ([2]; 125 g ai/ha, preemergence, scale 0 (no effect) to 100 (complete control), read-out: Wheat plant response rating): 30%
- plant injury at 250 g/ha ([2]; 250 g ai/ha, preemergence, scale 0 (no effect) to 100 (complete control), read-out: Wheat plant response rating): 45%
- plant injury at 31 g/ha ([2]; Preemergence, 31 g ai/ha, scale 0 to 100, 0 no effect, 100 complete control, read-out: Plant response rating, Wheat): 0%
- Velvetleaf plant response rating ([3]; 16 g ai/ha): 0
- Velvetleaf plant response rating ([3]; 31 g ai/ha): 0
- Velvetleaf plant response rating ([3]; 62 g ai/ha): 75
- Plant response rating, Velvetleaf ([3]; 125 g ai/ha): 85
- Plant response rating, Velvetleaf ([3]; 250 g ai/ha): 90
- pest or weed control at 31 g/ha [4, 12]: 10%
- pest or weed control at 62 g/ha [4, 13]: 10%
- pest or weed control at 125 g/ha [4, 14]: 40%
- pest or weed control at 16 g/ha [4, 15]: 5%
- Crabgrass, Large plant response rating ([5]; 16 g ai/ha): 0
- Crabgrass, Large plant response rating ([5]; 31 g ai/ha): 35
- Crabgrass, Large plant response rating ([5]; 62 g ai/ha): 98
- Plant response rating, Crabgrass, Large ([5]; 125 g ai/ha): 100
- Plant response rating, Crabgrass, Large ([5]; 250 g ai/ha): 100
- pest or weed control at 31 g/ha [6, 12]: 10%
- pest or weed control at 62 g/ha [6, 13]: 25%
- pest or weed control at 125 g/ha [6, 14]: 20%
- pest or weed control at 16 g/ha [6, 15]: 15%
- pest or weed control at 31 g/ha [7, 12]: 70%
- pest or weed control at 62 g/ha [7, 13]: 75%
- pest or weed control at 125 g/ha [7, 14]: 95%
- pest or weed control at 16 g/ha [7, 15]: 65%
- pest or weed control at 31 g/ha [8, 12]: 90%
- pest or weed control at 62 g/ha [8, 13]: 95%
- pest or weed control at 125 g/ha [8, 14]: 90%
- pest or weed control at 16 g/ha [8, 15]: 80%
- Johnsongrass plant response rating ([9]; 16 g ai/ha): 0
- Johnsongrass plant response rating ([9]; 31 g ai/ha): 0
- Johnsongrass plant response rating ([9]; 62 g ai/ha): 30
- Plant response rating, Johnsongrass ([9]; 125 g ai/ha): 70
- Plant response rating, Johnsongrass ([9]; 250 g ai/ha): 98
- Soybean plant response rating ([10]; 16 g ai/ha): 0
- Soybean plant response rating ([10]; 31 g ai/ha): 0
- Soybean plant response rating ([10]; 62 g ai/ha): 0
- Plant response rating, Soybean ([10]; 125 g ai/ha): 60
- Plant response rating, Soybean ([10]; 250 g ai/ha): 90
- pest or weed control at 31 g/ha [11, 12]: 60%
- pest or weed control at 62 g/ha [11, 13]: 70%
- pest or weed control at 125 g/ha [11, 14]: 70%
- pest or weed control at 16 g/ha [11, 15]: 50%
